Laboratory results as given in ChEMBL document CHEMBL5032500, “Adenosine A2AR/A1R Antagonists Enabling Additional H3R Antagonism for the Treatment of Parkinson's Disease” (J Med Chem, 2021).
Active and inactive are the calls of the source. The rule behind the calls is not given here.

What was measured:
Adenosine receptor A1 = target: T1, Adenosine receptor A1 (Homo sapiens, UniProt P30542); assay: Displacement of [3H]CCPA from human recombinant adenosine A1 receptor expressed in CHO cells by liquid scintillation counting analysis; type: cell-based
T1 sequence (P30542 whole entry): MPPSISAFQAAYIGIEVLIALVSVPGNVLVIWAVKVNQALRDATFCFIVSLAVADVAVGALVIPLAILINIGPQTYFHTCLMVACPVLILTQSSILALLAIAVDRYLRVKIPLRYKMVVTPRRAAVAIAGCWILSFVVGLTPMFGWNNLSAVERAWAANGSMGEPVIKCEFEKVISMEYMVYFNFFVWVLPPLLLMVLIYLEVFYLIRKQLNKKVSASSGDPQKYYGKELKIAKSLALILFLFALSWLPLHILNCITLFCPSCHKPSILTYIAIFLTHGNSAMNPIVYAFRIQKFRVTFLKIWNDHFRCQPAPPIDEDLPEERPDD

Adenosine receptor A2a [1] = target: T2, Adenosine receptor A2a (Homo sapiens, UniProt P29274); assay: Displacement of [3H]MSX-2 from human recombinant adenosine A2A receptor expressed in CHO cells by liquid scintillation counting analysis; type: cell-based
T2 sequence (P29274 whole entry): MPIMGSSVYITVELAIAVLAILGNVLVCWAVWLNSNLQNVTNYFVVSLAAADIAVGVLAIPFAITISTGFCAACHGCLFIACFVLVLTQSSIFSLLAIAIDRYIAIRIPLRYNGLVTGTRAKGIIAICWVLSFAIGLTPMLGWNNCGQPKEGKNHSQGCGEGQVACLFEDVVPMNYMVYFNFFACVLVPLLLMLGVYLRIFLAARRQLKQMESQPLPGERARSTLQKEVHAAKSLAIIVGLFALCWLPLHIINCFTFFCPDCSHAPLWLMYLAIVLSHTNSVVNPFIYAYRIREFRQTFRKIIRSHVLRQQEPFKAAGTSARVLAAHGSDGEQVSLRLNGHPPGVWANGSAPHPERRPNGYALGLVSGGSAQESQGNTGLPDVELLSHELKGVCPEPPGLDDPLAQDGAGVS

Adenosine receptor A3 = target: T3, Adenosine receptor A3 (Homo sapiens, UniProt P0DMS8); assay: Displacement of [3H]PSB-11 from human recombinant adenosine A3 receptor expressed in CHO cells by liquid scintillation counting analysis; type: cell-based
T3 sequence (P0DMS8 whole entry): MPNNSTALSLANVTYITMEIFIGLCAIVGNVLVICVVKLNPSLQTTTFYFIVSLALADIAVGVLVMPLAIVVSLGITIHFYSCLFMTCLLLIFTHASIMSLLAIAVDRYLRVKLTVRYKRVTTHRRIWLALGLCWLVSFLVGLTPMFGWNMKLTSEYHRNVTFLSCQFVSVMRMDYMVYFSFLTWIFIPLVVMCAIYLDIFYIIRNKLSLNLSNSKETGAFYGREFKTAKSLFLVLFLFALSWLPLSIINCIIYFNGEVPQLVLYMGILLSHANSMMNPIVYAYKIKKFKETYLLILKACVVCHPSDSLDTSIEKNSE

Adenosine receptor A2b = target: T4, Adenosine receptor A2b (Homo sapiens, UniProt P29275); assay: Displacement of [3H]PSB-603 from human recombinant adenosine A2B receptor expressed in CHO cells by liquid scintillation counting analysis; type: cell-based
T4 sequence (P29275 whole entry): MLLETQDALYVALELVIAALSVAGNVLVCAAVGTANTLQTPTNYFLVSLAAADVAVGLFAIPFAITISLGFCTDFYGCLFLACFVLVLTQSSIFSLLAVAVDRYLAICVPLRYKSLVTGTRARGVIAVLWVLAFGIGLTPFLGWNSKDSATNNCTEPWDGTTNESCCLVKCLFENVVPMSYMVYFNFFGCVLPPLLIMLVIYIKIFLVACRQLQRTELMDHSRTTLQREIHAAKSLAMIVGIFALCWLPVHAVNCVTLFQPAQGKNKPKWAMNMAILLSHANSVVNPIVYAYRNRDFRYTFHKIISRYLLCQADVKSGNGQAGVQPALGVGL

Histamine H3 receptor = Histamine H3 receptor (Homo sapiens, UniProt Q9Y5N1); assay: Displacement of [3H] N-alpha methylhistamine from human recombinant histamine H3 receptor expressed in HEK293 cells measured after 90 mins; type: cell-based
Chain of Histamine H3 receptor (Q9Y5N1 whole entry): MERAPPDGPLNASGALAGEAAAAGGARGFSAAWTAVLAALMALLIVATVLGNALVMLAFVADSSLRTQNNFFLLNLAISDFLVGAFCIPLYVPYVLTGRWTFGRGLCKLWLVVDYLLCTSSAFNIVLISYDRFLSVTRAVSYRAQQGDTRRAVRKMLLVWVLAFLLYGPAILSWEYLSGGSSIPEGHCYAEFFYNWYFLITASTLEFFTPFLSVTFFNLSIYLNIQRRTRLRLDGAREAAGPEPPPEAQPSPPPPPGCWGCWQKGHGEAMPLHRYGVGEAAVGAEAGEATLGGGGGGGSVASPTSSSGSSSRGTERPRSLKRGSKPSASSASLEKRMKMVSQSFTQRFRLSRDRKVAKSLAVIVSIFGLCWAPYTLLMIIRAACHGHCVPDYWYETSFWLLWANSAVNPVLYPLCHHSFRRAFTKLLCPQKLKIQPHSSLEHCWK

[2] = target: T5, Adenosine receptor A2b (Homo sapiens) (UniProt P29275); assay: Displacement of [3H]PSB-603 from human recombinant adenosine A2B receptor expressed in CHO cells at 1 uM by liquid scintillation counting analysis; type: cell-based
T5 sequence (whole entry): T4 sequence (P29275 whole entry)

Adenosine receptor A2a [3] = target: T2, Adenosine receptor A2a; assay: Displacement of [3H]MSX-2 from human recombinant adenosine A2A receptor expressed in CHO cells at 1 uM by liquid scintillation counting analysis; type: cell-based
SH-SY5Y = assay: Cytotoxicity against human SH-SY5Y cells assessed as remaining cell viability at 1000 nM incubated for 24 hrs; type: functional
[4] = target: T6, Adenosine receptor A3 (Homo sapiens) (UniProt P0DMS8); assay: Displacement of [3H]PSB-11 from human recombinant adenosine A3 receptor expressed in CHO cells at 1 uM by liquid scintillation counting analysis; type: cell-based
T6 sequence (whole entry): T3 sequence (P0DMS8 whole entry)

[5] = target: T7, Adenosine receptor A1 (Homo sapiens) (UniProt P30542); assay: Displacement of [3H]CCPA from human recombinant adenosine A1 receptor expressed in CHO cells at 1 uM by liquid scintillation counting analysis; type: cell-based
T7 sequence (whole entry): T1 sequence (P30542 whole entry)

Homo sapiens [6] = organism: Homo sapiens; assay: Selectivity index, ratio of Ki for human recombinant adenosine A3 receptor to Ki for human recombinant histamine H3 receptor
Adenosine receptor A2a [7] = target: T2, Adenosine receptor A2a; assay: […] activity at human recombinant adenosine A2A receptor expressed in CHO cells assessed as inhibition of NECA-induced cAMP accumulation incubated for 20 mins by radioligand competition binding assay; type: functional, cell-based
Homo sapiens [8] = organism: Homo sapiens; assay: Selectivity index, ratio of Ki for human recombinant dopamine D2S receptor to Ki for human recombinant adenosine A3 receptor
[9] = Displacement of [3H]SCH23390 from human recombinant dopamine D1 receptor expressed in HEK293 cells by liquid scintillation counting analysis; type: cell-based
Homo sapiens [10] = organism: Homo sapiens; assay: Selectivity index, ratio of Ki for human recombinant dopamine D3 receptor to Ki for human recombinant adenosine A3 receptor
Histamine H1 receptor = Histamine H1 receptor (Homo sapiens, UniProt P35367); assay: Displacement of [3H]pyrilamine from human recombinant histamine H1 receptor expressed in CHO cells by liquid scintillation counting analysis; type: cell-based
Chain of Histamine H1 receptor (P35367 whole entry): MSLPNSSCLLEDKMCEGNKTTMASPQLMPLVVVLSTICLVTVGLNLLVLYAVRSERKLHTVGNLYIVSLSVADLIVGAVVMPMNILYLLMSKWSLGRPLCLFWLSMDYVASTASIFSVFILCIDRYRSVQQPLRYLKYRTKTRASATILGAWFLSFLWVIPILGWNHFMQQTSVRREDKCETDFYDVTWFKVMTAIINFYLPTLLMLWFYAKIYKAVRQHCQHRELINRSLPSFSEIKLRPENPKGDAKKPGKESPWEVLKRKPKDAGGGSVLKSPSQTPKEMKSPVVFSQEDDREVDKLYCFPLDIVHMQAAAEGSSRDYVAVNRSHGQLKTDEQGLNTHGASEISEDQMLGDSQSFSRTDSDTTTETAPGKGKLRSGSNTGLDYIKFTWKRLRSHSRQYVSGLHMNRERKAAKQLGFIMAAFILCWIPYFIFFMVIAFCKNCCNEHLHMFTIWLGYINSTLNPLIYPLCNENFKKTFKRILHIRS

MAO-B = MAO-B (Homo sapiens, UniProt P27338); assay: Inhibition of human recombinant MAO-B using kynuramine as substrate at 10 uM measured for 30 mins by spectrophotometric analysis; details: probe kynuramine
Chain of MAO-B (P27338 whole entry): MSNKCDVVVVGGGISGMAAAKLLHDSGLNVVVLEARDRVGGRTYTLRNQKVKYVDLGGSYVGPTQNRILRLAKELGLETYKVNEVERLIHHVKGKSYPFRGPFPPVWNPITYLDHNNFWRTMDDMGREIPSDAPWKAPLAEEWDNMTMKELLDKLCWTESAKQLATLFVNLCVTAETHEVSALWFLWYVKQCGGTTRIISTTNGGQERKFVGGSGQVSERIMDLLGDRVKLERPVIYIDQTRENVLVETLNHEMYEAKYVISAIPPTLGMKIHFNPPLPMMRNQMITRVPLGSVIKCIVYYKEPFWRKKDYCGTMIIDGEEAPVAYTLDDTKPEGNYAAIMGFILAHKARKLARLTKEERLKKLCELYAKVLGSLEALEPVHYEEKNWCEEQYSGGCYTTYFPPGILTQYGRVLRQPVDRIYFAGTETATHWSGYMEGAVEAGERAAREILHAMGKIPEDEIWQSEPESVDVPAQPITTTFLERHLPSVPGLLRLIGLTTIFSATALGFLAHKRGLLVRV

Homo sapiens [11] = organism: Homo sapiens; assay: Selectivity index, ratio of Ki for human recombinant adenosine A3 receptor to Ki for human recombinant adenosine A2A receptor
Homo sapiens [12] = organism: Homo sapiens; assay: Selectivity index, ratio of Ki for human recombinant adenosine A2A receptor to Ki for human recombinant histamine H3 receptor
Homo sapiens [13] = organism: Homo sapiens; assay: Selectivity index, ratio of Ki for human recombinant dopamine D3 receptor to Ki for human recombinant adenosine A2A receptor
Homo sapiens [14] = organism: Homo sapiens; assay: Selectivity index, ratio of Ki for human recombinant dopamine D2S receptor to Ki for human recombinant adenosine A2A receptor
Homo sapiens [15] = organism: Homo sapiens; assay: Selectivity index, ratio of Ki for human recombinant dopamine D3 receptor to Ki for human recombinant adenosine A2B receptor
Histamine H4 receptor = Histamine H4 receptor (Homo sapiens, UniProt Q9H3N8); assay: Displacement of [3H]histamine from human recombinant histamine H4 receptor expressed in sf9 cells by liquid scintillation counting analysis
Chain of Histamine H4 receptor (Q9H3N8 whole entry): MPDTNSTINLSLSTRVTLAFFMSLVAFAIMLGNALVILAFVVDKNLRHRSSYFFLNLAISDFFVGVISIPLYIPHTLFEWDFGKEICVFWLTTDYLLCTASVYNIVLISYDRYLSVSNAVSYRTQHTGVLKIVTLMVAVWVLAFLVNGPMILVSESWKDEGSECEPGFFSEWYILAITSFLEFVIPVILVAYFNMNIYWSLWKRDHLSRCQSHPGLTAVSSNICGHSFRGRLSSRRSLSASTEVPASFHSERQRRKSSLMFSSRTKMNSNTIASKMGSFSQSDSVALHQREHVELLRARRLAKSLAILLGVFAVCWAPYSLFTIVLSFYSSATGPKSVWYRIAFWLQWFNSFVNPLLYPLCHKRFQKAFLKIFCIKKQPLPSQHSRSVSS

Homo sapiens [16] = organism: Homo sapiens; assay: Selectivity index, ratio of Ki for human recombinant dopamine D3 receptor to Ki for human recombinant adenosine A1 receptor
Homo sapiens [17] = organism: Homo sapiens; assay: Selectivity index, ratio of Ki for human recombinant dopamine D3 receptor to Ki for human recombinant dopamine D2S receptor
D(2) dopamine receptor = D(2) dopamine receptor (Homo sapiens, UniProt P14416); assay: Displacement of [3H]spiperone from human recombinant dopamine D2S receptor expressed in CHO cells by liquid scintillation counting analysis; type: cell-based
Chain of D(2) dopamine receptor (P14416 whole entry): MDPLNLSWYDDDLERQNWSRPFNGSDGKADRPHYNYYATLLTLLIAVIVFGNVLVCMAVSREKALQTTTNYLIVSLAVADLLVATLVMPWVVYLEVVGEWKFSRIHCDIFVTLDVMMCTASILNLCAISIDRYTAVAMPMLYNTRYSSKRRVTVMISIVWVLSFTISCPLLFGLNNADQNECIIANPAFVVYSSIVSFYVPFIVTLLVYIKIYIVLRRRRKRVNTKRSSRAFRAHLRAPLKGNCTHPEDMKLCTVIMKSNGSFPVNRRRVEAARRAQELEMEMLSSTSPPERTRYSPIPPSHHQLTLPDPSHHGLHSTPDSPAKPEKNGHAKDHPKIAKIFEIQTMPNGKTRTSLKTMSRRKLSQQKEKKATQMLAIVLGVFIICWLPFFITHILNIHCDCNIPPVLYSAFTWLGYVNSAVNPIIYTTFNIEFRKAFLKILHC

[18] = target: Adenosine receptors; A1 & A3 (Homo sapiens) (UniProt P30542+P0DMS8); assay: Selectivity index, ratio of Ki for human recombinant adenosine A3 receptor to Ki for human recombinant adenosine A1 receptor; type: protein assay
Rattus norvegicus = assay: Antiparkinson's activity in ip dosed L-DOPA induced dyskinesia Sprague-Dawley rat model assessed as reduction in dyskinesia by measuring abnormal involuntary movement upto 21 days; type: functional, organism-based; details: dose 0.1-1 mg/kg, time day <=21
MAO-A = MAO-A (Homo sapiens, UniProt P21397); assay: Inhibition of human recombinant MAO-A using kynuramine as substrate at 10 uM measured for 30 mins by spectrophotometric analysis; details: probe kynuramine
Chain of MAO-A (P21397 whole entry): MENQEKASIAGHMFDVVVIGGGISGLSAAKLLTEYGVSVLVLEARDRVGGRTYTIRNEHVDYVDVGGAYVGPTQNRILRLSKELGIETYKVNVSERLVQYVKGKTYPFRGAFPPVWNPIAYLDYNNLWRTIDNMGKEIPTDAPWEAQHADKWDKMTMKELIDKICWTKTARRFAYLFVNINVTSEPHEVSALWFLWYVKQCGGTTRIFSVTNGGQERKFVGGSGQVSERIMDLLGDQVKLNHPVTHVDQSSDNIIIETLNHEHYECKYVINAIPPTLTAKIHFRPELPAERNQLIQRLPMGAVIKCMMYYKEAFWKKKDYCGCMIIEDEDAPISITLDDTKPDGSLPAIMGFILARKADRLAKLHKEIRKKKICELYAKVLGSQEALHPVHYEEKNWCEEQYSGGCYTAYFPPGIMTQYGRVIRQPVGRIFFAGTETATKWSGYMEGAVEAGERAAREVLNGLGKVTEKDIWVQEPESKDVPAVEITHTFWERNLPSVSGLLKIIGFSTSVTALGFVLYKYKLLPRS

Homo sapiens [19] = organism: Homo sapiens; assay: Selectivity index, ratio of Ki for human recombinant dopamine D3 receptor to Ki for human recombinant histamine H3 receptor
Homo sapiens [20] = organism: Homo sapiens; assay: Selectivity index, ratio of Ki for human recombinant adenosine A3 receptor to Ki for human recombinant adenosine A2B receptor
Homo sapiens [21] = organism: Homo sapiens; assay: Selectivity index, ratio of Ki for human recombinant dopamine D2S receptor to Ki for human recombinant histamine H3 receptor
Homo sapiens [22] = organism: Homo sapiens; assay: Selectivity index, ratio of Ki for human recombinant adenosine A2A receptor to Ki for human recombinant adenosine A1 receptor
[23] = target: Amine oxidase [flavin-containing] B (Homo sapiens, UniProt P27338); assay: Inhibition of human recombinant MAO-B using kynuramine as substrate measured for 30 mins by spectrophotometric analysis
Chain of Amine oxidase [flavin-containing] B (P27338 whole entry): as the sequence (P27338 whole entry) above

Homo sapiens [24] = organism: Homo sapiens; assay: Selectivity index, ratio of Ki for human recombinant dopamine D2S receptor to Ki for human recombinant adenosine A2B receptor
Homo sapiens [25] = organism: Homo sapiens; assay: Selectivity index, ratio of Ki for human recombinant adenosine A2B receptor to Ki for human recombinant histamine H3 receptor
Homo sapiens [26] = organism: Homo sapiens; assay: Selectivity index, ratio of Ki for human recombinant adenosine A2B receptor to Ki for human recombinant adenosine A2A receptor
D(1B) dopamine receptor = D(1B) dopamine receptor (Homo sapiens, UniProt P21918); assay: Displacement of [3H]SCH23390 from human recombinant dopamine D5 receptor expressed in HEK293 cells by liquid scintillation counting analysis; type: cell-based
Chain of D(1B) dopamine receptor (P21918 whole entry): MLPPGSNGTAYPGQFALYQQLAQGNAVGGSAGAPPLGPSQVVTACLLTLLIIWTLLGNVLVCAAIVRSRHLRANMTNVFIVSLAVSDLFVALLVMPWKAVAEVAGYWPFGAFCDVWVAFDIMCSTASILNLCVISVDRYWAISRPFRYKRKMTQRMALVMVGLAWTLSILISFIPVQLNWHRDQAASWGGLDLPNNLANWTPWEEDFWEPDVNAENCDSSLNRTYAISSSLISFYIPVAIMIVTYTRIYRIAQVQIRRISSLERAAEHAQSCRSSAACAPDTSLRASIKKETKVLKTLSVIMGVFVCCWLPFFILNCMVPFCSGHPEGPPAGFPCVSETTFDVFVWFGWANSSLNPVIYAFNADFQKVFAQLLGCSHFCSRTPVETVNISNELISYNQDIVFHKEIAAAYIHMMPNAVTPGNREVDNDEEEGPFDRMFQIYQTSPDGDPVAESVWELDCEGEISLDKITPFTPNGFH

D(3) dopamine receptor = D(3) dopamine receptor (Homo sapiens, UniProt P35462); assay: Displacement of [3H]spiperone from human recombinant dopamine D3 receptor expressed in CHO cells by liquid scintillation counting analysis; type: cell-based
Chain of D(3) dopamine receptor (P35462 whole entry): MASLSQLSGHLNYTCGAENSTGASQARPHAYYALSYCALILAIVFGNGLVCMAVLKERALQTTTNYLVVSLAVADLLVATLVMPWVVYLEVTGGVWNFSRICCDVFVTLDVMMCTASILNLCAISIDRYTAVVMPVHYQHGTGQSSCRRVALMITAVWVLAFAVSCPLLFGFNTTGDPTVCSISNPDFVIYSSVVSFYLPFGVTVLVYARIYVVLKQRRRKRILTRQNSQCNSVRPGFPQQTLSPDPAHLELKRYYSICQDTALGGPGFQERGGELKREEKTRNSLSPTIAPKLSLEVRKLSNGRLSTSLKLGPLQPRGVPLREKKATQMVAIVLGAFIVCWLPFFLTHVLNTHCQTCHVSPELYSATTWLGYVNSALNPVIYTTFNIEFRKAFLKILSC

Homo sapiens [27] = organism: Homo sapiens; assay: Selectivity index, ratio of Ki for human recombinant adenosine A1 receptor to Ki for human recombinant histamine H3 receptor
Homo sapiens [28] = organism: Homo sapiens; assay: Selectivity index, ratio of Ki for human recombinant adenosine A2B receptor to Ki for human recombinant adenosine A1 receptor
Homo sapiens [29] = organism: Homo sapiens; assay: Selectivity index, ratio of Ki for human recombinant dopamine D2S receptor to Ki for human recombinant adenosine A1 receptor

## Nc1nc(-c2ccccc2)c2c(n1)-c1ccc(OCCCN3CCCC3)cc1C2=O
Adenosine receptor A1
  Ki: 129 nM
Adenosine receptor A2a [1]
  Ki: 104 nM
Adenosine receptor A3
  Ki: 846 nM
Adenosine receptor A2b
  Ki: 180 nM
Histamine H3 receptor
  Ki: 31 nM

## Nc1nc(-c2ccccc2)c2c(n1)-c1ccc(OCCCN3CCCC3)cc1C2
Adenosine receptor A1
  Ki: 828 nM
[2]
  inhibition: 25%
Adenosine receptor A2a [3]; filed as antagonist
  inhibition: 40%
Adenosine receptor A2a [1]
  Ki: > 1000 nM
Adenosine receptor A3
  Ki: > 1000 nM
Adenosine receptor A2b
  Ki: > 1000 nM
SH-SY5Y
  Activity: >75%
Histamine H3 receptor
  Ki: 11 nM
[4]
  inhibition: 35%

## O=C(c1ccc(OCCCc2c[nH]cn2)cc1)C1CC1
[5]
  inhibition: -6%
[2]
  inhibition: 8%
Adenosine receptor A2a [3]
  inhibition: -1%
[4]
  inhibition: 3%

## Nc1nc(-c2ccccc2)c2c(n1)-c1cc(OCCCN3CCCC3)ccc1C2
Adenosine receptor A1
  Ki: 11.5 nM
Homo sapiens [6]
  Ratio Ki: 14
Adenosine receptor A2a [7]
  Activity: inactive
Homo sapiens [8]
  Ratio Ki: 8
[9]
  Ki: > 1000 nM
Homo sapiens [10]
  Ratio Ki: 2
Histamine H1 receptor
  Ki: > 1000 nM
MAO-B
  inhibition at 0.5 h, 10 µM: 57%
Homo sapiens [11]
  Ratio Ki: 21
Homo sapiens [12]
  Ratio Ki: 0.66
Homo sapiens [13]
  Ratio Ki: 40
Homo sapiens [14]
  Ratio Ki: 172
Homo sapiens [15]
  Ratio Ki: 8
Histamine H4 receptor
  Ki: > 10000 nM
Adenosine receptor A2a [1]
  Ki: 7.25 nM
Adenosine receptor A3
  Ki: 150 nM
Homo sapiens [16]
  Ratio Ki: 25
Homo sapiens [17]
  Ratio Ki: 0.23
D(2) dopamine receptor
  Ki: 1250 nM
Adenosine receptor A2b
  Ki: 36.9 nM
[18]
  Ratio Ki: 13
Rattus norvegicus
  Activity: Dose-Dependent Effect
MAO-A
  inhibition at 0.5 h, 10 µM: 7.4%
Homo sapiens [19]
  Ratio Ki: 26
Homo sapiens [20]
  Ratio Ki: 4
Homo sapiens [21]
  Ratio Ki: 113
Homo sapiens [22]
  Ratio Ki: 0.63
[23]
  IC50: > 1000 nM
Homo sapiens [24]
  Ratio Ki: 34
Homo sapiens [25]
  Ratio Ki: 3
Homo sapiens [26]
  Ratio Ki: 5
D(1B) dopamine receptor
  Ki: > 1000 nM
D(3) dopamine receptor
  Ki: 290 nM
Histamine H3 receptor
  Ki: 11 nM
Homo sapiens [27]
  Ratio Ki: 1
Homo sapiens [28]
  Ratio Ki: 3
Homo sapiens [29]
  Ratio Ki: 108
